Laboratory results taken from patent US20220031680A1, “Donecopride As Neuroprotective Agent In the Treatment of Neurodegenerative Diseases” (priority 2018, published 2022).

Tested on: C57Bl6/J mice challenged with an intracerebroventricular injection of Aβ1-42 oligomers (AβO)
Experiment: Y-maze test (spatial working memory) in mice icv injected with AβO
Type: in vivo, mouse
Settings: day +4
Description: Briefly, 144 C57Bl6/J male mice (3 months of age) were received and housed (4 to 5 per cage) in quarantine during 7 days, or longer. Test items were dosed per os (through oral gavage) once daily at different concentrations from day −1 to day +17.
At day 0, mice received a single icv injection of vehicle or AβO.
At day +4 (i.e. four days after disease induction), spatial working memory was assessed using the Y-maze test.
The different experimental groups are defined as follow: • GROUP A (vehicle CTRL): po vehicle AND icv injection of vehicle (n=12) • GROUP B (APO CTRL): po vehicle AND icv injection of AβO (n=12) • GROUP C (positive CTRL): po Donepezil subchronic AND icv injection of AβO (n=12) • GROUP D (Donecopride CTRL): po Donecopride (9 mg/kg) AND icv injection of vehicle (n=12) • GROUP E (Flucopride CTRL): po Flucopride (9 mg/kg) AND icv injection of vehicle (n=12) • GROUP F (Donecopride Treated): po Donecopride (1 mg/kg) AND icv injection of AβO (n=12) • GROUP G (Donecopride Treated): po Donecopride (3 mg/kg) AND icv injection of AβO (n=12) • GROUP H (Donecopride Treated): po Donecopride (9 mg/kg) AND icv injection of AβO (n=12) • GROUP I (Fluocopride Treated): po Flucopride (1 mg/kg) AND icv injection of AβO (n=12) • GROUP J (Flucopride Treated): po Flucopride (3 mg/kg) AND icv injection of AβO (n=12) • GROUP K (Flucopride Treated): po Flucopride (9 mg/kg) AND icv injection of AβO (n=12) • GROUP L (positive CTRL): ip Donepezil acute on test days AND icv injection of AβO (n=12)
For per os dosing, Donecopride and Flucopride were formulated by solubilization in 0.9% NaCl. Compound dosing (total volume of 200 μL) started one day before induction of the disease (through icv injection of AβO) and was done for 19 consecutive days.
Single intra-cerebroventricular injection of 144 mice with vehicle or APO (max. 24 mice per day, all mice randomized): under anesthesia (ip injection of a mixture of ketamine/xylasine at a dose of 110 and 15 mg/kg, respectively) AβO (1 μL), or vehicle (1 μL) were injected into the right lateral ventricle. Injections were made using 10 μL Hamilton micro syringes fitted with a 26-gauge needle. The procedure was terminated by a subcutaneous injection of metacam (analgesia) at a dose of 5 mg/kg. Animals were then placed individually in their home-cage and the cage was placed in a heated cabinet until the animal has fully recovered. Animals were carefully monitored to control recovery after anesthesia.
Preparation of APO: Aβ1-42 was obtained from Bachem (ref H1368) (batch number: 1052301). The preparation of stable Aβ1-42 oligomers was performed as described in Garcia et al. (2010) J. Neurosci. 30:7516-7527. The oligomeric preparation (identified as Batch #2016-14) contained a mixture of stable trimers and tetramers of Aβ1-42, as well as monomeric forms of the peptide. All oligomer preparations used were previously characterized in terms of oligomer composition and in vitro neurotoxicity.
6 independent trials involving each 24 mice (i.e. 2 mice from each experimental group) for a total of 144 mice at day +4—Behavioral tests were performed 1 h after dosing.
Detailed protocol: Immediate spatial working memory performance was assessed by recording spontaneous alternation behavior in a Y-maze. The maze is made of opaque Plexiglas and each of the three arms is 40 cm long, 14 cm high, 10 cm wide and positioned at equal angles. The apparatus is placed in a homogeneously lit test room to obtain 12-15 lux in all arms as well as in the central zone. Mice are placed in the middle of one arm and allowed to explore the maze freely during 5 min session. The series of arm entries are video recorded (Smart v3.0 software, Bioseb) and an arm entry is considered complete when the hind paws of the mouse are completely placed in the arm. Alternation is defined as successive entries into the 3 arms on overlapping triplet sets. […]

[1] = 9 mg/kg/day po, icv vehicle (no AβO)

Structure (SMILES) | alternation behavior (Y-maze) (ip acute on test day, icv AβO (Group L)) | alternation behavior (Y-maze) (per os subchronic, icv AβO (Group C)) | alternation behavior (Y-maze) (1 mg/kg/day po, icv AβO) | alternation behavior (Y-maze) (3 mg/kg/day po, icv AβO) | alternation behavior (Y-maze) (9 mg/kg/day po, icv AβO) | alternation behavior (Y-maze) [1]
COc1cc2c(cc1OC)C(=O)C(CC1CCN(Cc3ccccc3)CC1)C2 (stereo not shown) [Donepezil, reference compound] | 60.8±1.9% | 66.1±1.8% |  |  |  | 
COc1cc(N)c(F)cc1C(=O)CCC1CCN(CC2CCCCC2)CC1 [Flucopride] |  |  | 67.1±2.7% | 65.3±4.1% | 59.1±3.0% | 63.1±2.3%
COc1cc(N)c(Cl)cc1C(=O)CCC1CCN(CC2CCCCC2)CC1 [Donecopride] |  |  | 56.6±3.7% | 65.5±4.4% | 64.3±5.1% | 59.3±4.0%
